# In patent US20050147691A1, “Catalytic oxidation of peroxy salts” (priority 2002, published 2005):
# Settings: DPS 1 mM, ambient temperature
# Experimental: The oxidation performance of the oxidizer or oxidizer based formulations was determined by fading of the crystal violet dye solution color. The fading of the color was monitored by measuring the UV absorbance of the dye solution at 589 nm, before and after addition of oxidizer or oxidizer based formulation. The change in absorbance or fading of color of the dye solution, corresponds to the oxidation activity of the oxidizer. The greater the change in absorbance, more reactive is the oxidizer composition.
# The oxidation activity was determined by measuring the destruction of crystal violet dye color at a wavelength of 589 nm by these formulations.
# Crystal Violet Dye solution: Prepare crystal violet dye solution by dissolving 5 mg of crystal violet dye in 1000 mls of deionized water. Dilute the solution accordingly to get a sharp peak at 589 nm.
# Procedure: • 1. […] Into 1500 mls beaker add 1000 mls of crystal violet dye solution. • 3. Using Hach spectrophotometer measure initial absorbance of the dye solution at 589 nm. • 4. […] Measure the absorbance at 589 nm after 1 and 2 hours reaction time. • 6. Calculate the percent decrease in crystal violet dye absorbance at 589 nm using the formula: [formula] Where Absi=Absorbance of crystal violet dye solution at the start of the experiment […]
row,SMILES,"effect on the oxidation performance of sodium dipersulfate, in words"
1,"O.O.O.O.O.O=S(=O)([O-])[O-].[Cu+2] [copper sulfate, copper sulfate pentahydrate]",increased
2,"O.O.O.O.O.O.O.O=S(=O)([O-])[O-].[Zn+2] [zinc sulfate, zinc sulfate heptahydrate]",no effect
